According to patent publication US20250018049A1, “COMPOUNDS FOR DEGRADING CYCLIN-DEPENDENT KINASE 2 VIA UBIQUITIN PROTEOSOME PATHWAY” (NIKANG THERAPEUTICS, INC., priority 2020, published 2025):

How the values were obtained:
Type in all cases: cell-based
CDK2 [1] = target: T1, CDK2 (Homo sapiens, UniProt P24941); experiment: Phospho-Rb HTRF measurement in OVCAR3 cells (inhibition of CDK2); parameters: High-Throughput Measurement of Cellular Endogenous CDK2; endogenous in cells; host or cells: OVCAR3; settings: pRB(S807/811) assay, 24 h compound treatment
Protocol: Phosphorylation of RB protein at S780 and S807/811 were measured using HTRF phospho-RB cellular kits (Cat #64RBS780PEG and 64RBS807PEG) from Cisbio.
On Day 1, OVCAR3 or KYSE520 cells were seeded into 96-well tissue-culture treated plates at 20,000 cells/well in 200 μL and incubated overnight at 37° C. in CO2 atmosphere. On Day 2, the cells were treated with test compounds at concentrations from 0.3 to 10,000 nM using HP D300 digital dispenser. Twenty-four hours after compound treatment, cell culture media was removed by flicking the plate and tapping the plate against clean paper towel. Immediately 30 μL 1× lysis buffer was supplemented from the kit and the plate was incubated at room temperature on shaker for 30 min. After homogenization by pipetting up and down, 8 μL cell lysate from 96-well cell culture plate was transferred to 384-well small volume white detection plate. 2 μL premixed detection solution was added and the plate was covered with sealer. To prepare the detection solution, d2 conjugated-phospho-RB antibody and Eu-cryptate conjugated phosphor-RB antibody were diluted into detection buffer following manufacturer's instruction. Detection plates were incubated for 4 h at room temperature and read on ClarioStar (BMG Labtech) in TR-FRET mode (665 nM and 620 nM). The TR-FRET ratio (665 nM/620 nM) was plotted against the compound concentration and normalized to DMSO controls. Half maximal inhibition concentration (IC50) values are calculated with a four-parameter logistic fit using GraphPad Prism (version 8; La Jolla, CA).

CDK2 [2] = target: T1, CDK2; experiment: NanoBRET CDK2 engagement assay; parameters: expressed in transfected cells; settings: OVCAR3 cells with stable CDK2-Luciferase vector, 24 hours treatment
Protocol: OVCAR3 cells with stable transfection of CDK2-Luciferase vector were seeded into 96-well plate at a density of 20,000 cells per well, 50 μL Opti-MEM medium supplemented with 1% FBS. Following morning, cells were treated with compounds of the disclosure, with starting concentration at 3 μM and ½ log dilution down to 0.3 nM for 24 hours at 37° C. DMSO treatment serves as control. Compound engagement was then measured using NanoBRE™ Kinase Kit from Promega (Part Number: CS1810C122, NanoBRET™ TE Kinase Kit #10, 1K) following manufacturer's instruction. For 24 hours treatment, tracer was added only for the last 2 hours. Briefly, 2.5 μL of complete 20× NanoBRET Tracer was added to the cells in suspension. Immediately prior to BRET measurements, prepare 3× Complete NanoBRET® Nano-Glo® Substrate in Opti-MEM without serum and phenol red. Without any delay, 25 μL per well of 3× Complete NanoBRET™ Nano-Glo® Substrate for a 96-well plate was added and mixed well. Signal was then read on a CLARIOstar® plate reader (measure donor emission (e.g., 450 nm) and acceptor emission (e.g., 610 nm or 630 nm) using a NanoBRET™-compatible luminometer. Target engagement was calculated with DMSO treatment as 100% signal, and IC50 was calculated by GraphPad Prism 9.

CDK2 [3] = target: T1, CDK2; experiment: CDK2 HTRF assay (cellular endogenous CDK2 level); parameters: High-Throughput Measurement of Cellular Endogenous CDK2; endogenous in cells; host or cells: OVCAR3; settings: OVCAR-3; OVCAR3 cells, 24 hours, 0.3 to 10,000 nM; read-out: max degradation of CDK2
Protocol: Effects of compounds on cellular CDK2 level can be monitored by a high-throughput HTRF assay or traditional Western Blot assay.
To determine half maximal degradation concentration (DC50) values of compounds, cellular CDK2 level was measured in 96-well format using HTRF total CDK2 cellular kit (Cat #64CDK2TPEG) from Cisbio.
On Day 1, OVCAR3 cells were seeded into 96-well tissue-culture treated plates at 20,000 cells/well in 200 μL and incubated overnight at 37° C. in CO2 atmosphere. On Day 2 cells were treated with compounds at concentration ranging from 0.3 to 10,000 nM using HP D300 digital dispenser. 24 hours after compound treatment, cell culture media was removed by flicking the plate and tapping the plate against clean paper towel. Immediately 30 μL 1× lysis buffer was supplemented from the kit and the plate was incubated at room temperature on shaker for 30 min. After homogenization by pipetting up and down, 8 μL cell lysate from 96-well cell culture plate was transferred to 384-well small volume white detection plate. 2 μL premixed detection solution was added and the plate was covered with sealer. To prepare the detection solution, d2 conjugated-CDK2 antibody and Eu-cryptate conjugated CDK2 antibody were diluted into detection buffer following manufacturer's instruction. Detection plates were incubated overnight at room temperature and read on ClarioStar (BMG Labtech) in TR-FRET mode (665 nM and 620 nM). The TR-FRET ratio (665 nM/620 nM) was plotted against the compound concentration and normalized to DMSO controls. Half maximal degradation concentration (DC50) values were calculated with a four-parameter logistic fit using GraphPad Prism (version 8; La Jolla, CA). FIG. 1 provides a dose-response curve of Compound 1 in Compound Table I in cellular CDK2 HTRF assay. IC50 in FIG. 1 is the same as DC50. Compounds 1, 13, 16, 22, 23, 28, 34, 35, 36, 37, 38, 39, 42, 48, 50, 51, 53, 54, 55, 56, 57, 58, 59, 60, 61, 62, 63, 65, 66, 68, 69, 70 were tested and max degradation of CDK2 observed was from about 35% to about 90%.

Structure (SMILES) | IC50 (CDK2 [1]) [nM] | IC50 (CDK2 [2]) [nM] | Dmax (CDK2 [3]) [%]
O=C1CCC(N2C(=O)c3cc(F)c(N4CCN(Cc5cccc(S(=O)(=O)N6CC[C@H](Nc7ncc8ccc(=O)n(C9CCCC9)c8n7)[C@@H](F)C6)c5)CC4)cc3C2=O)C(=O)N1 (stereo partly drawn) [Compound 65, 5-(4-(3-(((3S,4S)-4-((8-cyclopentyl-7-oxo-7,8-dihydropyrido[2,3-d]pyrimidin-2-yl)amino)-3-fluoropiperidin-1-yl)sulfonyl)benzyl)piperazin-1-yl)-2-(2,6-dioxopiperidin-3-yl)-6-fluoro-isoindoline-1,3-dione] | 6440 | 1750 | 35 to 90
O=C1CCC(N2Cc3cc(N4CC5(CN(Cc6cccc(S(=O)(=O)N7CCC(Nc8ncc9ccc(=O)n(C%10CC%11CC%11C%10)c9n8)CC7)c6)C5)C4)ccc3C2=O)C(=O)N1 (stereo not shown) [Compound 61, 3-(5-(6-(3-((4-((8-(bicyclo[3.1.0]hexan-3-yl)-7-oxo-7,8-dihydropyrido[2,3-d]pyrimidin-2-yl)amino)piperidin-1-yl)sulfonyl)benzyl)-2,6-diazaspiro[3.3]heptan-2-yl)-1-oxoisoindolin-2-yl)piperidine-2,6-dione] | 70.7 | 327 | 35 to 90
O=C1CCC(N2Cc3cc(N4CCN(Cc5cccc(S(=O)(=O)N6CCC(Nc7ncc8cc(C(F)F)c(=O)n(C9CCCC9)c8n7)CC6)c5)CC4)ccc3C2=O)C(=O)N1 (stereo not shown) [Compound 56, 3-(5-(4-(3-((4-((8-cyclopentyl-6-(difluoromethyl)-7-oxo-7,8-dihydropyrido[2,3-d]pyrimidin-2-yl)amino)piperidin-1-yl)sulfonyl)benzyl)piperazin-1-yl)-1-oxoisoindolin-2-yl)piperidine-2,6-dione] | 67 | 241 | 35 to 90
CN(C1CCC(Nc2cccc3c2C(=O)N(C2CCC(=O)NC2=O)C3=O)CC1)S(=O)(=O)N1CCC(Nc2ncc3ccc(=O)n(C4CCCC4)c3n2)CC1 (stereo not shown) [Compound 15, 4-((8-cyclopentyl-7-oxo-7,8-dihydropyrido[2,3-d]pyrimidin-2-yl)amino)-N-(4-((2-(2,6-dioxo-piperidin-3-yl)-1,3-dioxoisoindolin-4-yl)amino)-cyclohexyl)-N-methylpiperidine-1-sulfonamide] | 2020 | 356 | –
O=C1CCC(N2C(=O)c3cccc(NCCOCCOCCNS(=O)(=O)N4CCC(Nc5ncc6ccc(=O)n(C7CCCC7)c6n5)CC4)c3C2=O)C(=O)N1 (stereo not shown) [Compound 9, 4-((8-cyclopentyl-7-oxo-7,8-dihydropyrido[2,3-d]-pyrimidin-2-yl)amino)-N-(2-(2-(2-((2-(2,6-dioxopiperidin-3-yl)-1,3-dioxoisoindolin-4-yl)-amino)ethoxy)ethoxy)ethyl)piperidine-1-sulfonamide] | 1810 | 675 | –
N#Cc1cc2cnc(NC3CCN(S(=O)(=O)c4cccc(CN5CCN(c6cc7c(cc6F)C(=O)N(C6CCC(=O)NC6=O)C7=O)CC5)c4)CC3)nc2n(C2CCCC2)c1=O (stereo not shown) [Compound 46, 8-cyclopentyl-2-((1-((3-((4-(2-(2,6-dioxopiperidin-3-yl)-6-fluoro-1,3-dioxoisoindolin-5-yl)piperazin-1-yl)methyl)phenyl)sulfonyl)piperidin-4-yl)-amino)-7-oxo-7,8-dihydropyrido[2,3-d]-pyrimidine-6-carbonitrile] | 2920 | 2160 | –
CN(CCCOCCCc1cccc2c1C(=O)N(C1CCC(=O)NC1=O)C2=O)S(=O)(=O)N1CCC(Nc2ncc3ccc(=O)n(C4CCCC4)c3n2)CC1 (stereo not shown) [Compound 10, 4-((8-cyclopentyl-7-oxo-7,8-dihydropyrido[2,3-d]-pyrimidin-2-yl)amino)-N-(3-(3-(2-(2,6-dioxo-piperidin-3-yl)-1,3-dioxoisoindolin-4-yl)-propoxy)propyl)-N-methylpiperidine-1-sulfonamide] | 3790 | 791 | –
Cn1c(=O)n(C2CCC(=O)NC2=O)c2cccc(C3CCN(C4CN(c5cccc(S(=O)(=O)N6CCC(Nc7ncc8ccc(=O)n(C9CCCC9)c8n7)CC6)c5)C4)CC3)c21 (stereo not shown) [Compound 72, 3-(4-(1-(1-(3-((4-((8-cyclopentyl-7-oxo-7,8-dihydropyrido[2,3-d]pyrimidin-2-yl)amino)-piperidin-1-yl)sulfonyl)phenyl)azetidin-3-yl)piperidin-4-yl)-3-methyl-2-oxo-2,3-dihydro-1H-benzo[d]imidazol-1-yl)piperidine-2,6-dione] | 355 | 425 | –
Cn1c(=O)n(C2CCC(=O)NC2=O)c2cccc(C3CCN(C4CC5(C4)CN(S(=O)(=O)N4CCC(Nc6ncc7ccc(=O)n(C8CCCC8)c7n6)CC4)C5)CC3)c21 (stereo not shown) [Compound 32, 3-(4-(1-(2-((4-((8-cyclopentyl-7-oxo-7,8-dihydro-pyrido[2,3-d]pyrimidin-2-yl)amino)piperidin-1-yl)sulfonyl)-2-azaspiro[3.3]heptan-6-yl)piperidin-4-yl)-3-methyl-2-oxo-2,3-dihydro-1H-benzo[d]imidazol-1-yl)piperidine-2,6-dione] | 317 | 59 | –
CN(C1CCN(Cc2cccc3c2n(C)c(=O)n3C2CCC(=O)NC2=O)CC1)S(=O)(=O)N1CCC(Nc2ncc3ccc(=O)n(C4CCCC4)c3n2)CC1 (stereo not shown) [Compound 20, 4-((8-cyclopentyl-7-oxo-7,8-dihydropyrido[2,3-d]pyrimidin-2-yl)amino)-N-(1-((1-(2,6-dioxo-piperidin-3-yl)-3-methyl-2-oxo-2,3-dihydro-1H-benzo[d]imidazol-4-yl)methyl)piperidin-4-yl)-N-methylpiperidine-1-sulfonamide] | 1170 | 127 | –
CO[C@H]1CN(S(=O)(=O)c2cccc(CN3CCN(c4cc5c(cc4F)C(=O)N(C4CCC(=O)NC4=O)C5=O)CC3)c2)CC[C@@H]1Nc1ncc2ccc(=O)n(C3CCCC3)c2n1 (stereo partly drawn) [Compound 64, 5-(4-(3-(((3S,4S)-4-((8-cyclopentyl-7-oxo-7,8-dihydropyrido[2,3-d]pyrimidin-2-yl)amino)-3-methoxypiperidin-1-yl)sulfonyl)benzyl)piperazin-1-yl)-2-(2,6-dioxopiperidin-3-yl)-6-fluoro-isoindoline-1,3-dione] | 7940 | 3040 | –
